Earlier results as cited in patent publication US12059469B2, “Compositions and methods for wound treatment” (priority 2017, dated 2024).

Legend:
[1] = system: Wnt/β-catenin-mediated transcription; settings: through TNK 1 and 2 inhibition
mouse ear punch wound = settings: topical application, dissolved in DMSO

## Oc1nc(-c2ccc(C(F)(F)F)cc2)nc2c1CSCC2 [XAV939, 3,5,7,8-Tetrahydro-2-[4-(trifluoromethyl)phenyl]-4H-thiopyrano[4,3-d]pyrimidin-4-one]
[1]
  Wnt/β-catenin-mediated transcription: selectively inhibits
CRE
  effect on CRE: does not affect
NF-κK
  effect on NF-κK: does not affect
TGF-β
  effect on TGF-β: does not affect
Mouse ear punch wound
  fibrosis (scarring): reduced fibrosis
  rate of wound closure: significantly increased rate of wound closure
other
  aqueous solubility: < 1000 µg/mL
